pIC50: −log10 of the molar value. Like-named read-outs stand apart in the source and are kept apart here.
How the values were obtained:
MS751 cells = assay: MTT cell proliferation assay, MS751; type: cell-based, human; conditions: read-out: MTT Assay IC50, MS751
In short: (§1)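 Cells were seeded at 5,000-10,000 per well, left to attach overnight, then exposed to eight compound concentrations from 1 nM to 30 μM. After about 4 h with MTT, solubilized formazan was read at 490 nm and percent inhibition versus negative control was calculated.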

3T3 cells = assay: MTT cell proliferation assay, 3T3; type: cell-based, mouse; conditions: read-out: MTT Assay IC50, 3T3
In short: as §1

Z138 cells = assay: MTT cell proliferation assay, Z138; type: cell-based; conditions: read-out: MTT Assay IC50, Z138
In short: as §1

[1] = Homo sapiens, MS751, MS751 cells, approximately 64-72 hours incubation
[2] = Mus musculus, NIH3T3, 3T3 cells, approximately 64-72 hours incubation
[3] = Homo sapiens, Z-138, Z138 cells, approximately 64-72 hours incubation
[4] = Homo sapiens, MS751, MS751 cells, eight concentrations 1 nM to 30 μM, incubation approximately 64-72 hours
[5] = Mus musculus, NIH3T3, 3T3 cells, eight concentrations 1 nM to 30 μM, incubation approximately 64-72 hours
[6] = Homo sapiens, Z-138, Z138 cells, eight concentrations 1 nM to 30 μM, incubation approximately 64-72 hours
[7] = MS751 cells, approximately 64-72 hours incubation
[8] = 3T3 cells, approximately 64-72 hours incubation

| SMILES | pIC50 (MS751 cells; [1]) | pIC50 (3T3 cells; [2]) | pIC50 (Z138 cells; [3]) | pIC50 (MS751 cells; [4]) | pIC50 (3T3 cells; [5]) | pIC50 (Z138 cells; [6]) | also measured |
| --- | --- | --- | --- | --- | --- | --- | --- |
| Nc1ccc(/C=C/C(=O)NCC2Cc3cc(-c4cc(F)c(C(=O)N5CCOCC5)cc4F)cc(Cl)c3O2)cn1 (stereo not drawn) [Compound 328, (E)-3-(6-Aminopyridin-3-yl)-N-((7-chloro-5-(2,5-difluoro-4-(morpholine-4-carbonyl)phenyl)-2,3-dihydrobenzofuran-2-yl)methyl)acrylamide] | > 7.00 | 5.30 to 7.00 | > 7.00 | – | – | – | – |
| O=C(/C=C/c1cccnc1)NCC1Cc2cc(-c3ccc(Cl)cc3F)cc(Cl)c2O1 (stereo not drawn) [Compound 55, (E)-N-((7-chloro-5-(4-chloro-2-fluorophenyl)-2,3-dihydrobenzofuran-2-yl)methyl)-3-(pyridin-3-yl)acrylamide] | – | – | – | 5.30 to 7.00 | < 4.52 | 5.30 to 7.00 | – |
| CC(=O)c1ccc(-c2cc(Cl)c3c(c2)CC(CNC(=O)/C=C\c2cccnc2)O3)s1 (stereo not drawn) [Compound 299, (Z)-N-((5-(5-acetylthiophen-2-yl)-7-chloro-2,3-dihydrobenzofuran-2-yl)methyl)-3-(pyridin-3-yl)acrylamide] | 5.30 to 7.00 | < 4.52 | 5.30 to 7.00 | – | – | – | – |
| CC(=O)c1ccc(-c2cc(Cl)c3c(c2)CC(CNC(=O)/C=C/c2nc4ccccc4o2)O3)s1 (stereo not drawn) [Compound 290, (E)-N-((5-(5-acetylthiophen-2-yl)-7-chloro-2,3-dihydrobenzofuran-2-yl)methyl)-3-(benzo[d]oxazol-2-yl)acrylamide] | < 4.52 | < 4.52 | < 4.52 | – | – | – | – |
| CC(=O)c1ccc(-c2cc(Cl)c3c(c2)CC(CNC(=O)/C=C/c2cncc(C)c2)O3)s1 (stereo not drawn) [Compound 280, (E)-N-((5-(5-acetylthiophen-2-yl)-7-chloro-2,3-dihydrobenzofuran-2-yl)methyl)-3-(5-methylpyridin-3-yl)acrylamide] | 5.30 to 7.00 | < 4.52 | 5.30 to 7.00 | – | – | – | – |
| CS(=O)(=O)c1cncc(-c2cc(Cl)c3c(c2)CC(CNC(=O)/C=C/c2cccnc2)O3)c1 (stereo not drawn) [Compound 77, (E)-N-((7-chloro-5-(5-(methylsulfonyl)pyridin-3-yl)-2,3-dihydrobenzofuran-2-yl)methyl)-3-(pyridin-3-yl)acrylamide] | – | – | – | 5.30 to 7.00 | 5.30 to 7.00 | 5.30 to 7.00 | – |
| Nc1ccc(/C=C/C(=O)NCC2Cc3c(-c4ccccc4C(=O)N4CCOCC4)ccc(Cl)c3O2)cn1 (stereo not drawn) [Compound 344, (E)-3-(6-aminopyridin-3-yl)-N-((7-chloro-4-(2-(morpholine-4-carbonyl)phenyl)-2,3-dihydrobenzofuran-2-yl)methyl)acrylamide] | > 7.00 | > 7.00 | 5.30 to 7.00 | – | – | – | – |
| CC(=O)c1ccc(-c2cc(Cl)c3c(c2)CC(CN(C)C(=O)/C=C/c2cccnc2)O3)s1 (stereo not drawn) [Compound 125, (E)-N-((5-(5-acetylthiophen-2-yl)-7-chloro-2,3-dihydrobenzofuran-2-yl)methyl)-N-methyl-3-(pyridin-3-yl)acrylamide] | – | – | – | 4.52 to 5.30 | 4.52 to 5.30 | 4.52 to 5.30 | – |
| O=C(/C=C/c1cccnc1)NCC1Cc2cc(-c3ccccc3)cc(Cl)c2O1 (stereo not drawn) [Compound 67, (E)-N-((7-chloro-5-phenyl-2,3-dihydrobenzofuran-2-yl)methyl)-3-(pyridin-3-yl)acrylamide] | – | – | – | 5.30 to 7.00 | 4.52 to 5.30 | 5.30 to 7.00 | – |
| Nc1ccc(/C=C/C(=O)NCC2Cc3cc(-c4ccc(C(=O)N5CCCCC5)cn4)cc(Cl)c3O2)cn1 (stereo not drawn) [Compound 339, (E)-3-(6-aminopyridin-3-yl)-N-((7-chloro-5-(5-(piperidine-1-carbonyl)pyridin-2-yl)-2,3-dihydrobenzofuran-2-yl)methyl)acrylamide] | 5.30 to 7.00 | 4.52 to 5.30 | > 7.00 | – | – | – | – |
| Nc1ccc(/C=C/C(=O)NCC2Cc3cc(-c4ccc(S(=O)(=O)N5CCOCC5)cc4)cc(Cl)c3O2)cn1 (stereo not drawn) [Compound 914, (E)-3-(6-aminopyridin-3-yl)-N-((7-chloro-5-(4-(morpholinosulfonyl)phenyl)-2,3-dihydrobenzofuran-2-yl)methyl)acrylamide] | > 7.00 | 5.30 to 7.00 | > 7.00 | – | – | – | – |
| COc1ccc(F)cc1-c1cc(Cl)c2c(c1)CC(CNC(=O)/C=C/c1cccnc1)O2 (stereo not drawn) [Compound 61, (E)-N-((7-chloro-5-(5-fluoro-2-methoxyphenyl)-2,3-dihydrobenzofuran-2-yl)methyl)-3-(pyridin-3-yl)acrylamide] | – | – | – | 5.30 to 7.00 | 5.30 to 7.00 | 5.30 to 7.00 | – |
| CC(=O)c1ccc(-c2cc(Cl)c3c(c2)CC(CNC(=O)/C=C\c2cccnc2)O3)s1 (single isomer, unassigned) [Compound 312, (Z)-N-((5-(5-acetylthiophen-2-yl)-7-chloro-2,3-dihydrobenzofuran-2-yl)methyl)-3-(pyridin-3-yl)acrylamide] | – | – | 5.30 to 7.00 | – | – | – | pIC50 (MS751 cells; [7]): 4.52 to 5.30; pIC50 (3T3 cells; [8]): 4.52 to 5.30 |
| Nc1ccccc1-c1cc(Cl)c2c(c1)CC(CNC(=O)/C=C/c1cccnc1)O2 (stereo not drawn) [Compound 84, (E)-N-((5-(2-aminophenyl)-7-chloro-2,3-dihydrobenzofuran-2-yl)methyl)-3-(pyridin-3-yl)acrylamide] | – | – | – | 5.30 to 7.00 | 4.52 to 5.30 | 5.30 to 7.00 | – |
| CC(=O)c1ccc(-c2cc(Cl)c3c(c2)CC(CNC(=O)/C=C/c2cccnn2)O3)s1 (single isomer, unassigned) [Compound 318, (E)-N-((5-(5-acetylthiophen-2-yl)-7-chloro-2,3-dihydrobenzofuran-2-yl)methyl)-3-(pyridazin-3-yl)acrylamide] | – | – | – | – | – | – | pIC50 (MS751 cells; [7]): 5.30 to 7.00; pIC50 (3T3 cells; [8]): < 4.52; pIC50 (Z138 cells; Z138 cells, approximately 64-72 hours incubation): 5.30 to 7.00 |
| Nc1ccc(/C=C/C(=O)NCC2Cc3cc(-c4ccc(C(=O)N5CC(F)(F)C5)c(F)c4)cc(Cl)c3O2)cn1 (stereo not drawn) [Compound 336, (E)-3-(6-aminopyridin-3-yl)-N-((7-chloro-5-(4-(3,3-difluoroazetidine-1-carbonyl)-3-fluorophenyl)-2,3-dihydrobenzofuran-2-yl)methyl)acrylamide] | > 7.00 | 5.30 to 7.00 | > 7.00 | – | – | – | – |
| CC(=O)c1ccc(-c2cc(Cl)c3c(c2)CC(CNC(=O)/C=C/c2c(C)nn(C)c2Cl)O3)s1 (stereo not drawn) [Compound 160, (E)-N-((5-(5-acetylthiophen-2-yl)-7-chloro-2,3-dihydrobenzofuran-2-yl)methyl)-3-(5-chloro-1,3-dimethyl-1H-pyrazol-4-yl)acrylamide] | – | – | – | < 4.52 | < 4.52 | < 4.52 | – |
| Nc1ccc(/C=C/C(=O)NCC2Cc3c(-c4ccc(C(=O)N5CCOCC5)cc4F)ccc(Cl)c3O2)cn1 (stereo not drawn) [Compound 911, (E)-3-(6-aminopyridin-3-yl)-N-((7-chloro-4-(2-fluoro-4-(morpholine-4-carbonyl)phenyl)-2,3-dihydrobenzofuran-2-yl)methyl)acrylamide] | > 7.00 | 5.30 to 7.00 | > 7.00 | – | – | – | – |
| CC(C)(O)c1ccc(-c2cc(Cl)c3c(c2)CC(CNC(=O)/C=C/c2cccnc2)O3)s1 (stereo not drawn) [Compound 304, (E)-N-((7-chloro-5-(5-(2-hydroxypropan-2-yl)thiophen-2-yl)-2,3-dihydrobenzofuran-2-yl)methyl)-3-(pyridine-3-yl)acrylamide] | > 7.00 | 5.30 to 7.00 | > 7.00 | – | – | – | – |
| Nc1ccc(/C=C/C(=O)NCC2Cc3cc(-c4ccc(C(=O)N5CCOCC5)nc4)cc(Cl)c3O2)cn1 (stereo not drawn) [Compound 248, (E)-3-(6-aminopyridin-3-yl)-N-((7-chloro-5-(6-(morpholine-4-carbonyl)pyridin-3-yl)-2,3-dihydrobenzofuran-2-yl)methyl)acrylamide] | 5.30 to 7.00 | < 4.52 | > 7.00 | – | – | – | – |

— patent US9938258B2 (Karyopharm Therapeutics Inc., priority 2012, dated 2018)
